The values below come from PMC12526212, “Novel Isolongifolenone-Based Caprolactam Derivatives as Potential Anticancer Agents via the p53/mTOR/Autophagy Pathway” (Molecules, 2025).

Each structure is given as a SMILES string. Where two headings read alike, the source gives them in different places.

In test [1] the test system is LO2. The test can be described thus: CCK-8 cytotoxicity on normal cell line LO2. It is filed as cell-based. The following applies: Homo sapiens, L02; normal liver cells, CCK-8, 48 h, mean ± SD of three experiments. Here is the method: (§1) Three cancer cell lines (human breast adenocarcinoma cells MCF-7, human lung adenocarcinoma epithelial cells A549, and human hepatocellular carcinoma cells HepG2) were obtained from the Cell Bank of the Chinese Academy of Sciences (Shanghai, China). LO2 human normal liver cells were also purchased from STEM RECELL (Beijing, China, STM-CL-5770). The anti-proliferation activity of compounds was tested on three cancer cell lines. The cytotoxicity of compounds as tested on normal cell line (human normal liver cells LO2). Cells were seeded at a density of 5000 cells per well in 96-well plates. Natural product piperlongumine was used as the positive control. All experiments were performed in triplicate. Three cancer cell lines were cultured in High DMEM medium or RIPM 1640 containing 10% FBS (Sijiqing, Hangzhou, China) and 1% antibiotics at 37 °C in a 5% CO2 incubator. The experimental cells were seeded in a 96-well plate at 5000 cells per well and incubated for 24 h. The old medium was replaced with experimental medium, and the cells were cultured for 48 h. Afterward, 10 µL of CCK-8 solution was added to each well, and the cells were incubated for 3 h. The absorbance at 450 nm was measured using a microplate reader.

Test [2] relates to HepG2. Description: CCK-8 antiproliferative assay, HepG2. It is filed as cell-based. The following applies: Homo sapiens, read-out: IC50 HepG2. The procedure: (§2) After synthesis and characterization, the isolongifolenone bicyclocaprolactam derivatives were evaluated for their in vitro antiproliferative activity against three cancer cell lines (MCF-7, HepG2, A549) using a CCK-8 assay. […] In general, the antiproliferative activities of most of these compounds were similar, irrespective of whether electron-withdrawing or electron-donating substituents were introduced in the phenoxy ring.
as §1

Test [3] deals with A549. Description: CCK-8 antiproliferative assay, A549. The following applies: Homo sapiens, read-out: IC50 A549. It is filed as cell-based. Here is the method: as §2, §1
(Formazan colour is commonly taken as a measure of viable cells.)

Test [4] has as its system MCF-7. The test can be described thus: CCK-8 antiproliferative assay, MCF-7. It is filed as cell-based. The following applies: Homo sapiens, read-out: IC50 MCF-7. Here is the method: as §2, §1
Test [5] has as its system three cancer cell lines (MCF-7, HepG2, A549). Description: CCK-8 antiproliferative assay, three cancer cell lines together. It is filed as cell-based, human. The procedure:
as §2, §1

Setting [6] is: HepG2, CCK-8, 48 h, mean ± SD of three experiments.
[7] abbreviates: A549, CCK-8, 48 h, mean ± SD of three experiments.
Setting [8] is: MCF7, CCK-8, 48 h, mean ± SD of three experiments.

In the case of `CC1(C)C2=CC(=O)N(C(=O)C=Cc3ccc(F)cc3)CC(C)(C)C23CCC1C3` (centres unmarked) [E1, 5,5,9,9-Tetramethyl-3-(3-(4-fluorophenyl)acryloyl)-4,5,6,7,8,9-hexahydro-5a,8-methanobenzo[d]azepin-2(3H)-one], the 50% inhibitory concentration (IC50) – broadly, the point on the concentration scale where inhibition reaches its midpoint – in test [1] is more than 20 µM; in test [2] (setting [6]), more than 20 µM; in test [3] (setting [7]), 11.7 ± 0.16 µM; in test [4] (setting [8]), 9.18 ± 0.11 µM.
As to `Cc1ccc(C=CC(=O)N2CC(C)(C)C34CCC(C3)C(C)(C)C4=CC2=O)cc1` (centres unmarked) [E2, 5,5,9,9-Tetramethyl-3-(3-(4-tolyl)acryloyl)-4,5,6,7,8,9-hexahydro-5a,8-methanobenzo[d]azepin-2(3H)-one], the IC50 in test [1] was more than 20 µM; in test [2] (setting [6]), 6.6 ± 0.07 µM; in test [3] (setting [7]) it was 3.18 ± 0.16 µM; in test [4] (setting [8]), 1.29 ± 0.04 µM.
For `CC1(C)C2=CC(=O)N(C(=O)C=Cc3ccc(Cl)cc3)CC(C)(C)C23CCC1C3` (centres unmarked) [E3, 5,5,9,9-Tetramethyl-3-(3-(4-chlorophenyl)acryloyl)-4,5,6,7,8,9-hexahydro-5a,8-methanobenzo[d]azepin-2(3H)-one] the same measures were more than 20 µM, 7.09 ± 0.33 µM, 16.9 ± 0.27 µM and 18.97 ± 0.13 µM.
The corresponding values for `CC1(C)C2=CC(=O)N(C(=O)C=Cc3ccc(C(F)(F)F)cc3)CC(C)(C)C23CCC1C3` (centres unmarked) [E4, 5,5,9,9-Tetramethyl-3-(3-(4-(trifluoromethyl)phenyl)acryloyl)-4,5,6,7,8,9-hexahydro-5a,8-methanobenzo[d]azepin-2(3H)-one] are more than 20 µM, more than 20 µM, 14.98 ± 0.1 µM and 16.74 ± 0.16 µM.
Take `Cc1ccccc1C=CC(=O)N1CC(C)(C)C23CCC(C2)C(C)(C)C3=CC1=O` (centres unmarked) [E5, 5,5,9,9-Tetramethyl-3-(3-(2-tolyl)acryloyl)-4,5,6,7,8,9-hexahydro-5a,8-methanobenzo[d]azepin-2(3H)-one]: the IC50 is more than 20 µM in test [1], 1.86 ± 0.09 µM in test [2] (setting [6]), 3.89 ± 0.44 µM in test [3] (setting [7]) and 2.86 ± 0.12 µM in test [4] (setting [8]).
The corresponding values for `CC1(C)C2=CC(=O)N(C(=O)C=Cc3cccc(F)c3)CC(C)(C)C23CCC1C3` (centres unmarked) [E6, 5,5,9,9-Tetramethyl-3-(3-(3-fluorophenyl)acryloyl)-4,5,6,7,8,9-hexahydro-5a,8-methanobenzo[d]azepin-2(3H)-one] are more than 20 µM, 5.96 ± 0.05 µM, 5.34 ± 0.16 µM and 5.32 ± 0.11 µM.
The corresponding values for `CC1(C)C2=CC(=O)N(C(=O)C=Cc3cccc(Cl)c3)CC(C)(C)C23CCC1C3` (centres unmarked) [E7, 5,5,9,9-Tetramethyl-3-(3-(3-chlorophenyl)acryloyl)-4,5,6,7,8,9-hexahydro-5a,8-methanobenzo[d]azepin-2(3H)-one] are more than 20 µM, 6.67 ± 0.06 µM, 2.28 ± 0.1 µM and 2.67 ± 0.11 µM.
The corresponding values for `COc1ccccc1C=CC(=O)N1CC(C)(C)C23CCC(C2)C(C)(C)C3=CC1=O` (centres unmarked) [E9, 5,5,9,9-Tetramethyl-3-(3-(2-methoxyphenyl)acryloyl)-4,5,6,7,8,9-hexahydro-5a,8-methanobenzo[d]azepin-2(3H)-one] are more than 20 µM, 2.17 ± 0.24 µM, 2.13 ± 0.16 µM and 2.22 ± 0.07 µM.
For the compound `CC1(C)C2=CC(=O)N(C(=O)C=Cc3ccccc3C(F)(F)F)CC(C)(C)C23CCC1C3` (centres unmarked) [E11, 5,5,9,9-Tetramethyl-3-(3-(2-(trifluoromethyl)phenyl)acryloyl)-4,5,6,7,8,9-hexahydro-5a,8-methanobenzo[d]azepin-2(3H)-one], the IC50 in test [1] was more than 20 µM; in test [2] (setting [6]), 4.53 ± 0.12 µM; in test [3] (setting [7]), 18.3 ± 0.21 µM; in test [4] (setting [8]) it was 5.63 ± 0.3 µM.
The corresponding values for `CC1(C)C2=CC(=O)N(C(=O)C=Cc3cccc(Br)c3)CC(C)(C)C23CCC1C3` (centres unmarked) [E12, 5,5,9,9-Tetramethyl-3-(3-(3-bromophenyl)acryloyl)-4,5,6,7,8,9-hexahydro-5a,8-methanobenzo[d]azepin-2(3H)-one] are 11.26 ± 0.06 µM, 4.89 ± 0.52 µM, 3.55 ± 0.04 µM and 1.26 ± 0.19 µM.
For `CC1(C)C2=CC(=O)N(C(=O)C=Cc3ccccc3Br)CC(C)(C)C23CCC1C3` (centres unmarked) [E13, 5,5,9,9-Tetramethyl-3-(3-(2-bromophenyl)acryloyl)-4,5,6,7,8,9-hexahydro-5a,8-methanobenzo[d]azepin-2(3H)-one] the same measures were more than 20 µM, 2.67 ± 0.16 µM, 4.64 ± 0.06 µM and 2.12 ± 0.04 µM.
Turning to `CC1(C)C2=CC(=O)N(C(=O)C=Cc3ccc(Br)cc3)CC(C)(C)C23CCC1C3` (centres unmarked) [E14, 5,5,9,9-Tetramethyl-3-(3-(4-bromophenyl)acryloyl)-4,5,6,7,8,9-hexahydro-5a,8-methanobenzo[d]azepin-2(3H)-one], the IC50 in test [1] was more than 20 µM; in test [2] (setting [6]), 2.38 ± 0.16 µM; in test [3] (setting [7]), 3.21 ± 0.16 µM; in test [4] (setting [8]), 1.27 ± 0.04 µM.
For `CC1(C)C2=CC(=O)N(C(=O)C=Cc3ccccc3Cl)CC(C)(C)C23CCC1C3` (centres unmarked) [E15, 5,5,9,9-Tetramethyl-3-(3-(2-chlorophenyl)acryloyl)-4,5,6,7,8,9-hexahydro-5a,8-methanobenzo[d]azepin-2(3H)-one] the same measures were more than 20 µM, 2.09 ± 0.16 µM, 3.47 ± 0.16 µM and 1.58 ± 0.16 µM.
The corresponding values for `COc1ccc(C=CC(=O)N2CC(C)(C)C34CCC(C3)C(C)(C)C4=CC2=O)cc1` (centres unmarked) [E16, 5,5,9,9-Tetramethyl-3-(3-(4-methoxyphenyl)acryloyl)-4,5,6,7,8,9-hexahydro-5a,8-methanobenzo[d]azepin-2(3H)-one] are more than 20 µM, 2.44 ± 0.16 µM, 5.28 ± 0.1 µM and 2.67 ± 0.18 µM.
With `COc1ccc(C=CC(=O)N2CC(C)(C)C34CCC(C3)C(C)(C)C4=CC2=O)cc1OC` (centres unmarked) [E17, 5,5,9,9-Tetramethyl-3-(3-(3,4-dimethoxyphenyl)acryloyl)-4,5,6,7,8,9-hexahydro-5a,8-methanobenzo[d]azepin-2(3H)-one], the IC50 in test [1] is more than 20 µM; in test [2] (setting [6]), 2.56 ± 0.16 µM; in test [3] (setting [7]), 5.28 ± 0.08 µM; in test [4] (setting [8]) it was 2.16 ± 0.03 µM. Moreover, the “antiproliferative / anticancer activity” value in test [5] was “good anticancer activity”.
For `CC1(C)C2=CC(=O)N(C(=O)C=Cc3cccnc3)CC(C)(C)C23CCC1C3` (centres unmarked) [E18, 5,5,9,9-Tetramethyl-3-(3-(pyridin-3-yl)acryloyl)-4,5,6,7,8,9-hexahydro-5a,8-methanobenzo[d]azepin-2(3H)-one] the same measures were more than 20 µM, more than 20 µM, more than 20 µM, more than 20 µM and “entirely lost”.
For `CC1(C)C2=CC(=O)N(C(=O)C=Cc3ccc(F)c(F)c3)CC(C)(C)C23CCC1C3` (centres unmarked) [E19, 5,5,9,9-Tetramethyl-3-(3-(3,4-difluorophenyl)acryloyl)-4,5,6,7,8,9-hexahydro-5a,8-methanobenzo[d]azepin-2(3H)-one] the same measures were more than 20 µM, 18.43 ± 0.16 µM, 18.9 ± 0.16 µM, 17.07 ± 0.06 µM and “good anticancer activity”.
With `COc1cc(/C=C/C(=O)N2CCC=CC2=O)cc(OC)c1OC` [PL, Piperlongumine, reference compound], the IC50 in test [2] (HepG2, 48 h) was 3.46 ± 0.25 µM; in test [3] (A549, 48 h), 5.83 ± 0.26 µM; in test [4] (MCF7, 48 h) it was 2.79 ± 0.43 µM.
